Entries after “also recorded” stand apart in the source; their conditions may differ. Read-outs that look alike come from different tables or passages of the source.

Holding throughout (format): in vitro ADME
The target of one data set is T1, CYP1A2 (Homo sapiens, UniProt P05177).
T1 construct: Pooled human liver microsomes (from sixteen individuals) were used as the source of enzymes; tissue XenoTech, LLC; host or cells: human liver microsomes, pool of sixteen donors
T1 sequence (P05177 1-516): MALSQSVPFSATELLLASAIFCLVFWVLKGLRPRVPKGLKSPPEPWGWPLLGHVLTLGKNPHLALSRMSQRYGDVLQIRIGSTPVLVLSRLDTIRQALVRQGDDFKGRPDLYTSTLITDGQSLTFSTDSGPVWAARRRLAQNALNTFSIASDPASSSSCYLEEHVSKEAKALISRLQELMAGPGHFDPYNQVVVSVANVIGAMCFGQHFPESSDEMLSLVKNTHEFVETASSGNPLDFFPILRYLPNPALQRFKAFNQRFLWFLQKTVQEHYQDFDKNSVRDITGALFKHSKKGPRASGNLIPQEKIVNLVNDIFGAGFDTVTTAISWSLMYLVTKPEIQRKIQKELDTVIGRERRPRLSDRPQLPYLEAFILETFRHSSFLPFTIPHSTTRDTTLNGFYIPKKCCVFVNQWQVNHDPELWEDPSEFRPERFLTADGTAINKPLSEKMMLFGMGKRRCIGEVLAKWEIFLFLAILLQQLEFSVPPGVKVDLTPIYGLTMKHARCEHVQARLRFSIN
Briefly: CYP1A2 inhibition, phenacetin O-deethylation in human liver microsomes. The settings on record: for Potential for Time-Dep. Inhibition: comparison with and without 30-minute pre-incubation; for inhibition at 5 min, 100 µM: human, pH 7.4, probe phenacetin (O-deethylation), 60 μM. As to the method: (§1) The basis for many of the following incubation conditions is described in the following references: Madan, et al., 2002,^(1) Huang, 2004,^(3) Ogilvie, et al., 2006,^(6) Pearce, et al., 1996,^(7) Tucker, et al., 2001,^(4) and Walsky and Obach, 2004.^(5) In general, incubations were conducted at approximately 37° C. in 400-μL incubation mixtures (target pH 7.4) containing high purity water, potassium phosphate buffer (50 mM), MgCl2 (3 mM), EDTA (1 mM), an NADPH-generating system [always the mixture of the following: NADP (1 mM), glucose-6-phosphate (5 mM), glucose-6-phosphate dehydrogenase (1 Unit/mL)], and marker substrate at the final concentrations indicated. Pooled human liver microsomes (from sixteen individuals) were used as the source of enzymes (Section 1.3.1.2). The concentrations of marker substrates were based on the Km and Vmax data that were determined previously (data not shown).
(§2) Due to the possibility that boceprevir may bind to microsomal protein or lipids, an attempt was made to design these experiments such that, in as many cases as possible, the microsomal protein, incubation time, and phosphate buffer concentration were 0.1 mg/mL, 5 minutes and 50 mM, respectively, for assays performed with human liver microsomes (Table 1). […] Since it is not imperative that the concentration of marker substrates be exactly equal to Km, the marker substrate concentrations were rounded up or down, as applicable, to simplify the experimental design (data not shown). […] Thus, the final incubation concentration of phenacetin was 60 μM (Table 1).
(§3) The ability of boceprevir to inhibit the CYP enzymes listed in Section 1.2.1 was investigated with a pool of sixteen individual human liver microsomal samples at the concentrations indicated in Table 1. Aliquots of the stock and/or working solutions of boceprevir were manually added to buffer mixtures containing the components described in Section 1.3.21. Incubation mixtures were prepared in bulk to obviate the need for directly pipetting very small volumes (i.e., 1 μL or less). Incubations containing no boceprevir (0 μM) contained the vehicle used to dissolve boceprevir (i.e., 1% methanol).
(§4) The Tecan liquid handling system conducted all remaining incubation steps, with the exception of the centrifugation. Aliquots of the buffer mixtures were then automatically added to 96-well plates at the appropriate locations in duplicate. Aliquots of a substrate working solution were added to the 96-well plates, prior to initiating reactions, to give the final concentrations indicated in Table 1. Reactions were initiated with the addition of an aliquot of an NADPH-generating system. Reactions were automatically terminated at approximately 5 minutes, by the addition of the appropriate internal standard (Table 5) and stop reagent; acetonitrile. Precipitated protein was removed by centrifugation (920 g for 10 minutes at 10° C.). Standards and quality control samples were similarly prepared with the addition of authentic metabolite standards.
(§5) To examine its ability to act as a time-dependent inhibitor, boceprevir (at the same concentrations used to evaluate direct inhibition) was pre-incubated at 37±1° C., in duplicate, with human liver microsomes and an NADPH-generating system for approximately 30 minutes. This pre-incubation allowed for the generation of intermediates that could inhibit human CYP enzymes. The pre-incubations were initiated with the addition of an aliquot of an NADPH-generating system. […] Reactions were automatically terminated, at approximately 5 minutes, by the addition of the appropriate internal standard (Table 5) and stop reagent; acetonitrile. Precipitated protein was removed by centrifugation (920 g for 10 minutes at 10° C.). Incubations containing no boceprevir (0 μM) and incubations that contained boceprevir but were not pre-incubated, served as negative controls.
(Microsomes from liver hold many membrane-bound enzymes, among them those of drug oxidation.)

Another data set deals with CYP3A4/5. Briefly: CYP3A4/5 inhibition, midazolam 1′-hydroxylation in human liver microsomes (IC50 and Ki). As to conditions: for Potential for Time-Dep. Inhibition: comparison with and without 30-minute pre-incubation. The procedure:
as §1, §2, §3, §4, §5

The target in another data set is T2, CYP2B6 (Homo sapiens, UniProt P20813).
T2 construct: Pooled human liver microsomes (from sixteen individuals) were used as the source of enzymes; tissue XenoTech, LLC; host or cells: human liver microsomes, pool of sixteen donors
T2 sequence (P20813 1-491): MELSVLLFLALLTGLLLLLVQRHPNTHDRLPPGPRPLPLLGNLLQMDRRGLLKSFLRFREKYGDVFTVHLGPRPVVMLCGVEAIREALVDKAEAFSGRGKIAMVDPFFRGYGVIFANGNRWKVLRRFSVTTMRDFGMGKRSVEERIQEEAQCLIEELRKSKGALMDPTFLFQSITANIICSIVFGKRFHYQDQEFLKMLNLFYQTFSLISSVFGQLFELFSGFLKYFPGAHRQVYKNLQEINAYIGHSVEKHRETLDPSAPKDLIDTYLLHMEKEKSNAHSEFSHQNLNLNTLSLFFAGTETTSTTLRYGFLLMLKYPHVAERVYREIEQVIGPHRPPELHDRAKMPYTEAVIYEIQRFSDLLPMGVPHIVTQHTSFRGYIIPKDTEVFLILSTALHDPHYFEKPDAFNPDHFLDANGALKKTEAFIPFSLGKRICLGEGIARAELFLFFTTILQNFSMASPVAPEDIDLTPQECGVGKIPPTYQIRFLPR
Briefly: CYP2B6 inhibition, bupropion hydroxylation in human liver microsomes. The settings on record: for Potential for Time-Dep. Inhibition: comparison with and without 30-minute pre-incubation; for inhibition at 5 min, 100 µM: human, pH 7.4, probe bupropion (hydroxylation). The procedure:
as §1, §2, §3, §4, §5

[1] abbreviates: direct inhibition, zero-minute pre-incubation, pooled human liver microsomes.
The mark [2] stands for this setting: pooled human liver microsomes, direct inhibition, zero-minute pre-incubation, read-out: Max. Inhib. at 100 μM.
[3] abbreviates: pooled human liver microsomes, time-dependent inhibition, 30-minute pre-incubation, read-out: Maximum Inhibition at 100 μM.
Setting [4] is: time-dependent inhibition, 30-minute pre-incubation.

In general, IC50 refers to the concentration at which inhibition is half-maximal. Read a low IC50 as greater potency. By Ki is commonly meant a measure of affinity in units of concentration, obtained from inhibition or displacement. Low readings indicate a stronger hold on the target, high ones a looser hold on the target. For the molecule `CC(C)(C)NC(=O)NC(C(=O)N1CC2C([C@H]1C(=O)NC(CC1CCC1)C(=O)C(N)=O)C2(C)C)C(C)(C)C` (stereo partly drawn) [Boceprevir, (1R,2S,5S)—N-[(2Ξ)-4-amino-1-cyclobutyl-3,4-dioxobutan-2-yl]-3-{(2S)-2-[(tert-butylcarbamoyl)amino]-3,3-dimethylbutanoyl}-6,6-dimethyl-3-azabicyclo[3.1.0]hexane-2-carboxamide], the “Potential for Time-Dep. Inhibition” value is on record as “little or no” at CYP1A2; “no discernable time-dependent inhibition” at CYP1A2 (listed as boceprevir); “yes^c” with CYP3A4/5; “caused time-dependent inhibition” in the data set on CYP3A4/5 (listed as boceprevir); “little or no” on CYP2B6; “no discernable time-dependent inhibition” at CYP2B6 (listed as boceprevir). Further, the 50% inhibitory concentration (IC50) against CYP1A2 (setting [1]), on CYP1A2 (setting [4]), against CYP2B6 (setting [1]) and on CYP2B6 (setting [4]) was over 100 µM in each case. Further, the inhibition at 5 min, 100 µM at CYP1A2 (setting [2]) amounted to 22%; at CYP1A2 (setting [3]), 9.8%; with CYP3A4/5 (human, pooled human liver microsomes, pH 7.4, probe midazolam (1′-hydroxylation), direct inhibition, zero-minute pre-incubation, read-out: Max. Inhib. at 100 μM) it was 91%; in the data set with CYP3A4/5 (human, pooled human liver microsomes, pH 7.4, probe midazolam (1′-hydroxylation), time-dependent inhibition, 30-minute pre-incubation, read-out: Maximum Inhibition at 100 μM), 99%; at CYP2B6 (setting [2]), 2.3%; on CYP2B6 (setting [3]), 6.9%. Further, the “Type of Inhibition” value in the data set on CYP3A4/5 (direct inhibition) is “competitive; also recorded: competit”; in the data set on CYP3A4/5 (direct inhibition, listed as boceprevir) it was “competitive”. In addition, the Ki at 5 min in the data set on CYP3A4/5 (human, pooled human liver microsomes, pH 7.4, probe midazolam (1′-hydroxylation), direct inhibition) was found to be 7.7 µM. The half-maximal inhibitory concentration (IC50) at 5 min turned out to be 11 µM in the data set on CYP3A4/5 (human, pooled human liver microsomes, pH 7.4, probe midazolam (1′-hydroxylation), direct inhibition, zero-minute pre-incubation) and 0.97 µM in the data set on CYP3A4/5 (human, pooled human liver microsomes, pH 7.4, probe midazolam (1′-hydroxylation), time-dependent inhibition, 30-minute pre-incubation).

Values taken from patent publication US20140162942A1, “INHIBITION OF CYP3A DRUG METABOLISM” (priority 2010, published 2014).
